Reference: US20260062422A1 (Halda Therapeutics OpCo, Inc., priority 2022, published 2026)

Key:
[1] = test system: T-Rex 293 cell line SC3 cells lacking increased expression of androgen receptor protein; experiment: Cellular growth inhibition, T-Rex 293 SC3 cells without doxycycline, CellTiter-Glo; type: cell-based; conditions: 72 h, T-Rex 293 SC3 cells not exposed to doxycycline, CellTiter-Glo 2.0
How it was run: (§1)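 Doxycycline-inducible androgen receptor T-Rex 293 clone SC3, seeded at 2500/well in phenol red-free DMEM with 10% charcoal-dextran FBS, without doxycycline or with 10 ng/mL to induce receptor. Compound added after 24 h (0.5% DMSO), 72 h at 37 °C; CellTiter-Glo 2.0 luminescence, GI50 by four-parameter fit.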

[2] = test system: T-Rex 293 cell line SC3 cells having increased expression of androgen receptor protein due to exposure to doxycycline; experiment: Cellular growth inhibition, T-Rex 293 SC3 cells with doxycycline (androgen receptor induced), CellTiter-Glo; type: cell-based; conditions: 72 h, T-Rex 293 SC3 cells with 10 ng/mL doxycycline (increased androgen receptor expression)
How it was run: as §1

T47D cells = experiment: Cellular growth inhibition assay for T47D cells, CellTiter-Glo; type: cell-based, human; conditions: Homo sapiens, T47D, 72 h, 72 hours treatment, CellTiter-Glo 2.0 cell viability
How it was run: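 Growth inhibition as GI50, fitted with four parameters to CellTiter-Glo luminescence after 72 h of compound exposure (0.5% DMSO). Cells were T47D, grown in insulin-supplemented (0.2 units/mL) DMEM with 10% FBS and treated one day post-seeding.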

GI50 (T47D cells)	SMILES	GI50 [1]	GI50 [2]
< 500 nM	CCNC(=O)C[C@@H]1N=C(c2ccc(OCCOC3CCN(c4ncc(C(=O)N[C@H]5C(C)(C)[C@H](Oc6ccc(C#N)c(Cl)c6)C5(C)C)cn4)CC3)cc2F)c2c(sc(C)c2C)-n2c(C)nnc21 [Compound I-75]	500 to 1500 nM	< 500 nM
500 to 1500 nM	CCNC(=O)C[C@@H]1N=C(c2ccc(OCCOC3CCN(c4ncc(C(=O)N[C@H]5C(C)(C)[C@H](Oc6ccc(C#N)c(Cl)c6)C5(C)C)cn4)CC3)c(F)c2)c2c(sc(C)c2C)-n2c(C)nnc21 [Compound I-76]	500 to 1500 nM	< 500 nM
500 to 1500 nM	CCNC(=O)C[C@@H]1N=C(c2ccc(OCCCN(C)c3ncc(C(=O)N[C@H]4C(C)(C)[C@H](Oc5ccc(C#N)c(Cl)c5)C4(C)C)cn3)cc2)c2c(sc(C)c2C)-n2c(C)nnc21 [Compound I-81]	500 to 1500 nM	< 500 nM
500 to 1500 nM	CCNC(=O)C[C@@H]1N=C(c2ccc(OCCCC#Cc3ncc(C(=O)N[C@H]4C(C)(C)[C@H](Oc5ccc(C#N)c(Cl)c5)C4(C)C)cn3)cc2)c2c(sc(C)c2C)-n2c(C)nnc21 [Compound I-83]	500 to 1500 nM	< 500 nM
1500 to 3000 nM	CCNC(=O)C[C@@H]1N=C(c2ccc(Oc3ncc(C(=O)N[C@H]4C(C)(C)[C@H](Oc5ccc(C#N)c(Cl)c5)C4(C)C)cn3)cc2)c2c(sc(C)c2C)-n2c(C)nnc21 [Compound I-84]	1500 to 3000 nM	500 to 1500 nM
< 500 nM	CCNC(=O)C[C@@H]1N=C(c2ccc(OC3CCN(C4CCN(c5ncc(C(=O)N[C@H]6C(C)(C)[C@H](Oc7ccc(C#N)c(Cl)c7)C6(C)C)cn5)CC4)C3)cc2)c2c(sc(C)c2C)-n2c(C)nnc21 (stereo partly drawn) [Compound I-85]	> 3000 nM	< 500 nM
500 to 1500 nM	CCNC(=O)C[C@@H]1N=C(c2ccc(OCCCCc3ncc(C(=O)N[C@H]4C(C)(C)[C@H](Oc5ccc(C#N)c(Cl)c5)C4(C)C)cn3)cc2)c2c(sc(C)c2C)-n2c(C)nnc21 [Compound I-86]	1500 to 3000 nM	< 500 nM
< 500 nM	CCNC(=O)C[C@@H]1N=C(c2ccc(CCCC3CCN(c4ncc(C(=O)N[C@H]5C(C)(C)[C@H](Oc6ccc(C#N)c(Cl)c6)C5(C)C)cn4)CC3)cc2)c2c(sc(C)c2C)-n2c(C)nnc21 [Compound I-95]	< 500 nM	< 500 nM
500 to 1500 nM	Cc1sc2c(c1C)C(c1ccc(CCCOC3CCN(c4ncc(C(=O)N[C@H]5C(C)(C)[C@H](Oc6ccc(C#N)c(Cl)c6)C5(C)C)cn4)CC3)cc1)=N[C@@H](CC(=O)NC(C)C)c1nnc(C)n1-2 [Compound I-100]	> 3000 nM	< 500 nM
500 to 1500 nM	CCN(C)C(=O)C[C@@H]1N=C(c2ccc(CCCOC3CCN(c4ncc(C(=O)N[C@H]5C(C)(C)[C@H](Oc6ccc(C#N)c(Cl)c6)C5(C)C)cn4)CC3)cc2)c2c(sc(C)c2C)-n2c(C)nnc21 [Compound I-101]	> 3000 nM	< 500 nM
< 500 nM	Cc1sc2c(c1C)C(c1ccc(CCCOC3CCN(c4ncc(C(=O)N[C@H]5C(C)(C)[C@H](Oc6ccc(C#N)c(Cl)c6)C5(C)C)cn4)CC3)cc1)=N[C@@H](CC(=O)NC1CC1)c1nnc(C)n1-2 [Compound I-102]	> 3000 nM	< 500 nM
< 500 nM	CCNC(=O)C[C@@H]1N=C(c2ccc(CCCN(C)c3ncc(C(=O)N[C@H]4C(C)(C)[C@H](Oc5ccc(C#N)c(Cl)c5)C4(C)C)cn3)cc2)c2c(sc(C)c2C)-n2c(C)nnc21 [Compound I-104]	< 500 nM	< 500 nM
< 500 nM	CCNC(=O)C[C@@H]1N=C(c2ccc(N3CCN(CC4CCN(c5ncc(C(=O)N[C@H]6C(C)(C)[C@H](Oc7ccc(C#N)c(Cl)c7)C6(C)C)cn5)CC4)CC3)cc2)c2c(sc(C)c2C)-n2c(C)nnc21 [Compound I-105, N-[3-(3-chloro-4-cyano-phenoxy)-2,2,4,4-tetramethyl-cyclobutyl]-2-[4-[[4-[4-[(9S)-9-[2-(ethylamino)-2-oxo-ethyl]-4,5,13-trimethyl-3-thia-1,8,11,12-tetrazatricyclo[8.3.0.02,6]trideca-2(6),4,7,10,12-pentaen-7-yl]phenyl]piperazin-1-yl]methyl]-1-piperidyl]pyrimidine-5-carboxamide]	< 500 nM	< 500 nM
500 to 1500 nM	CCNC(=O)C[C@@H]1N=C(c2ccc(N(C)CC3CN(c4ncc(C(=O)N[C@H]5C(C)(C)[C@H](Oc6ccc(C#N)c(Cl)c6)C5(C)C)cn4)C3)cc2)c2c(sc(C)c2C)-n2c(C)nnc21 [Compound I-107]	500 to 1500 nM	< 500 nM
500 to 1500 nM	CCNC(=O)C[C@@H]1N=C(c2ccc(N(C)CCN3CCN(c4ncc(C(=O)N[C@H]5C(C)(C)[C@H](Oc6ccc(C#N)c(Cl)c6)C5(C)C)cn4)CC3)cc2)c2c(sc(C)c2C)-n2c(C)nnc21 [Compound I-108]	< 500 nM	< 500 nM
< 500 nM	CCNC(=O)C[C@@H]1N=C(c2ccc(N(C)C3CN(CC4CCN(c5ncc(C(=O)N[C@H]6C(C)(C)[C@H](Oc7ccc(C#N)c(Cl)c7)C6(C)C)cn5)CC4)C3)cc2)c2c(sc(C)c2C)-n2c(C)nnc21 [Compound I-119]	500 to 1500 nM	< 500 nM
< 500 nM	CCNC(=O)C[C@@H]1N=C(c2ccc(N3CC(N(C)C4CN(c5ncc(C(=O)N[C@H]6C(C)(C)[C@H](Oc7ccc(C#N)c(Cl)c7)C6(C)C)cn5)C4)C3)cc2)c2c(sc(C)c2C)-n2c(C)nnc21 [Compound I-121]	500 to 1500 nM	< 500 nM
< 500 nM	CCNC(=O)C[C@@H]1N=C(c2ccc(N3CCC(N(C)C4CN(c5ncc(C(=O)N[C@H]6C(C)(C)[C@H](Oc7ccc(C#N)c(Cl)c7)C6(C)C)cn5)C4)CC3)cc2)c2c(sc(C)c2C)-n2c(C)nnc21 [Compound I-123]	500 to 1500 nM	< 500 nM
500 to 1500 nM	CCNC(=O)C[C@@H]1N=C(c2ccc(N3CCC(CN4CC(Oc5ncc(C(=O)N[C@H]6C(C)(C)[C@H](Oc7ccc(C#N)c(Cl)c7)C6(C)C)cn5)C4)CC3)cc2)c2c(sc(C)c2C)-n2c(C)nnc21 [Compound I-124]	1500 to 3000 nM	< 500 nM
500 to 1500 nM	CCNC(=O)C[C@@H]1N=C(c2ccc(N(C3CC3)C3CN(CC4CCN(c5ncc(C(=O)N[C@H]6C(C)(C)[C@H](Oc7ccc(C#N)c(Cl)c7)C6(C)C)cn5)CC4)C3)cc2)c2c(sc(C)c2C)-n2c(C)nnc21 [Compound I-129]	1500 to 3000 nM	< 500 nM
500 to 1500 nM	CCNC(=O)C[C@@H]1N=C(c2ccc(N(C)C3CC(OC4CCN(c5ncc(C(=O)N[C@H]6C(C)(C)[C@H](Oc7ccc(C#N)c(Cl)c7)C6(C)C)cn5)CC4)C3)cc2)c2c(sc(C)c2C)-n2c(C)nnc21 (stereo partly drawn) [Compound I-130]	500 to 1500 nM	< 500 nM
< 500 nM	Cc1sc2c(c1C)C(c1ccc(CCCOC3CCN(c4ncc(C(=O)N[C@H]5C(C)(C)[C@H](Oc6ccc(C#N)c(Cl)c6)C5(C)C)cn4)CC3)cc1)=N[C@@H](Cc1ncco1)c1nnc(C)n1-2 [Compound I-131, N-[3-(3-chloro-4-cyano-phenoxy)-2,2,4,4-tetramethyl-cyclobutyl]-2-[4-[3-[4-[(9S)-4,5,13-trimethyl-9-(oxazol-2-ylmethyl)-3-thia-1,8,11,12-tetrazatricyclo[8.3.0.02,6]trideca-2(6),4,7,10,12-pentaen-7-yl]phenyl]propoxy]-1-piperidyl]pyrimidine-5-carboxamide]	< 500 nM	< 500 nM
< 500 nM	Cc1sc2c(c1C)C(c1ccc(CC3CC(C4CCN(c5ncc(C(=O)N[C@H]6C(C)(C)[C@H](Oc7ccc(C#N)c(Cl)c7)C6(C)C)cn5)CC4)C3)cc1)=NC(Cc1ncco1)c1nnc(C)n1-2 (stereo partly drawn) [Compound I-136]	> 3000 nM	< 500 nM
< 500 nM	Cc1sc2c(c1C)C(c1ccc(CC3CN(CC4CCN(c5ncc(C(=O)N[C@H]6C(C)(C)[C@H](Oc7ccc(C#N)c(Cl)c7)C6(C)C)cn5)CC4)C3)cc1)=N[C@@H](Cc1ncco1)c1nnc(C)n1-2 [Compound I-153]	500 to 1500 nM	< 500 nM
< 500 nM	Cc1sc2c(c1C)C(c1ccc(C[C@H]3C[C@@H]([C@@H]4CCCN(c5ncc(C(=O)N[C@H]6C(C)(C)[C@H](Oc7ccc(C#N)c(Cl)c7)C6(C)C)cn5)C4)C3)cc1)=N[C@@H](Cc1ncco1)c1nnc(C)n1-2 [Compound I-161]	500 to 1500 nM	< 500 nM
500 to 1500 nM	Cc1sc2c(c1C)C(c1ccc(OC3CC4(CCN(c5ncc(C(=O)N[C@H]6C(C)(C)[C@H](Oc7ccc(C#N)c(Cl)c7)C6(C)C)cn5)CC4)C3)cc1)=NC(Cc1ncco1)c1nnc(C)n1-2 (stereo partly drawn) [Compound I-166]	500 to 1500 nM	< 500 nM
< 500 nM	Cc1sc2c(c1C)C(c1ccc(OC3CN(CC4CCN(c5ncc(C(=O)N[C@H]6C(C)(C)[C@H](Oc7ccc(C#N)c(Cl)c7)C6(C)C)cn5)CC4)C3)cc1)=N[C@H](Cc1ncco1)c1nnc(C)n1-2 [Compound I-169]	> 3000 nM	< 500 nM
< 500 nM	Cc1sc2c(c1C)C(c1ccc(O[C@H]3CC[C@@]4(CCCN(c5ncc(C(=O)N[C@H]6C(C)(C)[C@H](Oc7ccc(C#N)c(Cl)c7)C6(C)C)cn5)C4)CC3)cc1)=N[C@@H](Cc1ncco1)c1nnc(C)n1-2 [Compound I-172]	500 to 1500 nM	< 500 nM
< 500 nM	Cc1sc2c(c1C)C(c1ccc(N3CC(C4CCN(c5ncc(C(=O)N[C@H]6C(C)(C)[C@H](Oc7ccc(C#N)c(Cl)c7)C6(C)C)cn5)CC4)C3)cc1)=NC(Cc1ncco1)c1nnc(C)n1-2 (stereo partly drawn) [Compound I-209]	> 3000 nM	< 500 nM
